Key:
[1] = cited from earlier work; for melting temperature of a triple helix: Sakakibara et al. 1973
[2] = tested on: corneal epithelium in wounded mouse eyes; assay: In vivo healing of mouse corneal epithelium, wound size by fluorescein staining; conditions: 100 ng/ml EGF, positive control; 16 hours post-treatment
Source text: To examine the possible therapeutic effects of CMPs and CMP-TC conjugates of the invention, studies were designed to test certain CMPs and CMP-TC conjugates in an in vivo setting—the healing of the corneal epithelium in wounded mouse eyes. Female mice (8-week-old C57BL/6; seven mice per sample tested) were anesthetized, and corneas of the mouse eyes were wounded with a 1.5 mm superficial epithelial wound of sufficient depth to expose the anterior stroma thereby damaging and exposing the collagen matrix. […] Following wounding, corneas were treated with 25 nM (about 3 mg/kg) CMPs or CMP-TC conjugates, in aqueous PBS. Negative control mice were treated with vehicle only (PBS), and positive control mice were treated with 100 ng/ml epidermal growth factor (EGF). Wound size at various time points over 48 hours was examined by fluorescein staining (see Carlson et al., id.), and documented via fluorescent photomicrography, and quantified using Image J software (see Rush, J. S. et al., Investig. Ophthalmol. Visual Sci. 57 (14): 5864-5871 (2016); Rush, J. S. et al., Investig. Ophthalmol. Visual Sci. 55 (8): 4691-4699 (2014)).

[3] = tested on: dorsal root ganglia (DRG) neurons; assay: Neurite outgrowth in dorsal root ganglion neurons on cut collagen plates treated with CMP; assay type: cell-based, rat; conditions: 100 μM CMP on cut collagen; 48 hours
Protocol: Plates were then rinsed with culture medium, and DRG neuronal cells were plated uniformly on plates having one of three surface coating conditions: (1) intact collagen; (2) cut collagen; and (3) cut collagen+CMP. Plates were then incubated at 37° C. for 48 hours, and then examined for morphology and neurite outgrowth by inverted brightfield microscopy.

ARPE19 cells = assay: Adherence of RPE cells to MMP-1-digested (cut) collagen plates treated with CMP; assay type: cell-based, human; conditions: 100 μM CMP on cut collagen; 19 hours
Protocol: Plates were then rinsed with culture medium, and ARPE-19 cells were plated uniformly on plates having one of three surface coating conditions: (1) intact collagen; (2) cut collagen; and (3) cut collagen+CMP. Plates were then incubated at 37° C. for 19 hours, and then examined for cell adherence by phase contrast microscopy.

(ProHypGly)10
melting temperature of a triple helix [1]: 58 °C | rate at which chains fold into a triple helix ([1]; relative to (ProProGly)10, Chopra and Ananthanarayanan 1982): substantially greater

epidermal growth factor [EGF, positive control in the corneal wound model, 100 ng/ml]
wound healing in mouse cornea and corneal stroma (diameter and intensity of fluorescein fluorescence) [2]: lower level of healing

Pro-Flp-Gly-Pro-Flp-Gly-Pro-Cys-Gly-Pro-Flp-Gly-Pro-Flp-Gly-Pro-Flp-Gly-Pro-Flp-Gly [CMP D]
length of the longest neurite normalized to cut collagen [3]: even exceeded that observed with intact collagen | adherence of RPE cells, quantitative, normalized to cut collagen (ARPE19 cells): significantly increased adhesion

Flp-Hyp-Gly-Flp-Hyp-Gly-Flp-Hyp-Gly-Flp-Hyp-Gly-Flp-Hyp-Gly-Flp-Hyp-Gly-Flp-Hyp-Gly [CMP B]
adherence of RPE cells in photomicrographs vs. cut collagen plates (ARPE19 cells): increased adherence | adherence of RPE cells, quantitative, normalized to cut collagen (ARPE19 cells): significantly increased adhesion

(ProProGly)10
melting temperature of a triple helix [1]: 24 °C
